Experimental data reported in US6649762B1, “Crystal modification C of 8-cyano-1-cyclopropyl-7-(1S,6S-2,8-diazabicyclo-[4.3.0]nonan-8-yl)-6-fluoro-1,4-dihyro-4-oxo-3-quinoline carboxylic” (Bayer Aktiengesellschaft, priority 1999, dated 2003).

Experiments:
pathogenic bacteria = experiment: activity against pathogenic bacteria; settings: area of human or veterinary medicine
[1] = storage stability of the crystal modification; type: physicochemical; settings: prolonged storage
[2] = hygroscopicity of the solid; type: physicochemical; settings: powder obtained by the known preparation process

## N#Cc1c(N2C[C@@H]3CCCN[C@@H]3C2)c(F)cc2c(=O)c(C(=O)O)cn(C3CC3)c12 [CCDC of the crystal modification C, 8-cyano-1-cyclopropyl-7-(1S,6S-2,8-diazabicyclo[4.3.0]nonan-8-yl)-6-fluoro-1,4-dihydro-4-oxo-3-quinolinecarboxylic acid]
Pathogenic bacteria
  activity against pathogenic bacteria: highly active
[1]
  stability of the crystal modification (change into another crystal modification or the amorphous form): does not change into another crystal modification or the amorphous form

## N#Cc1c(N2C[C@@H]3CCCN[C@@H]3C2)c(F)cc2c(=O)c(C(=O)O)cn(C3CC3)c12 [partially amorphous powder, 8-cyano-1-cyclopropyl-7-(1S,6S-2,8-diazabicyclo[4.3.0]nonan-8-yl)-6-fluoro-1,4-dihydro-4-oxo-3-quinolinecarboxylic acid]
[2]
  hygroscopicity: hygroscopic
